Measured values published in patent US7678829B2, “Oculoselective drugs and prodrugs” (QLT Inc., priority 2004, dated 2010).

Legend:
[1] = Accelerated stability test of 0.25% solutions in acetate buffer, HPLC; format: physicochemical; conditions: for projected shelf-life: conventional eye drop formulation, at room temperature
Protocol: An accelerated stability test was conducted on 0.25% solutions of compounds 6, 7, and 8 (Example 2) at 40° C. for 1, 2, 3, 4, 8 and 12 weeks and monitored for the disappearance of the prodrugs and appearance of the parent compound by HPLC analysis. The parent compound (referred to hereinafter as compound 4) has the formula: […]
The respective compounds were dissolved in an acetate buffer, pH 3.5 (0.018% sodium acetate, 0.135% acetic acid, 0.9% sodium chloride in water for injection) to obtain 0.25% solution. The stability of the compounds was determined at 40° C. for 1, 2, 3, 4, 8, and 12 weeks. The concentration of the parent compound as well as the concentrations of the prodrug compounds 6, 7, and 8 at each time point by HPLC method.

albino rabbits = test: Corneal anesthesia measurements (Cochet's esthesiometer); format: in vivo, rabbit
Protocol: The effect of a 50 μl single instillation of 0.3%, 0.5%, 1.0% and 2.0% solution of compound 7 on corneal anesthesia, after a single instillation in the conjunctival sac of the right eyes of albino rabbits (N=5) was measured using a Cochet's esthesiometer (nylon thread: 0.12 mm diameter, 10 mm long). Corneal anesthesia was evaluated by the number of comeal mechanical stimuli necessary to induce a blinking reflex. The effect of drug solutions was compared with sterile 0.9% NaCl treated animals (control group) and 0.4% oxybuprocaine (Novesine®).

[2] = Ocular bioavailability, aqueous humor analyzed by HPLC; format: in vivo; conditions: rabbit aqueous humor
Protocol: Three rabbits were used per time point. The 50 μl test substance was administered in a single instillation using a micropipette into the conjunctival sac of the right and the left eyes. The rabbits were anesthetized with an intramuscular injection of Imalgéne® 1000 (ketamine 32 mg/kg), and Rompun® (xylasine 7.5 mg/kg). They were then desanguinated by cardiac puncture and thereafter euthanized by an overdose of pentobarbital. Immediately after death, the eyes were micro-dissected to obtain: cornea (C), aqueous humor (AH), and iris-ciliary body (ICB). All samples were stored at −80° C. Only aqueous humor (AH) samples were analyzed by HPLC.

| Structure (SMILES) | projected shelf-life [1] | corneal sensitivity (local anesthetic activity) (albino rabbits; 50 μl single instillation of 0.3%, 0.5%, 1.0% and 2.0% solution, compared to 0.4% oxybuprocaine) | relative stability (FIG. 1, percent degradation) ([1]; 0.25% solution, 40° C., pH 3.5, compared among compounds 6, 7 and 8) | level of the prodrug itself in aqueous humor [2] | corneal sensitivity (local anesthetic activity) (albino rabbits; at 1%) |
| --- | --- | --- | --- | --- | --- |
| Cc1cc(O)c(O)cc1C(=O)OCC(CNC(C)(C)CNC(=O)C1CCOC1)OC(=O)C1CC1(C)C (centres unmarked) [Compound 8, 4,5-dihydroxy-2-methyl-benzoic acid 2-(2,2-dimethyl-cyclopropanecarbonyloxy)-3-{1,1-dimethyl-2-[(tetrahydro-furan-3-carbonyl)-amino]-ethylamino}-propyl ester] | 7.9 months | – | – | – | – |
| Cc1cc(O)c(O)cc1C(=O)OCC(CNC(C)(C)CNC(=O)C1CCOC1)OC(=O)C1(C)CC1 (centres unmarked) [Compound 7, 4,5-Dihydroxy-2-methyl-benzoic acid 3-{1,1-dimethyl-2-[(tetrahydro-furan-3-carbonyl)-amino]-ethylamino}-2-(1-methyl-cyclopropanecarbonyloxy)-propyl ester] | at least 18 months | no comeal sensitivity | most stable | also present in aqueous humor | – |
| Cc1cc(O)c(O)cc1C(=O)OCC(CNC(C)(C)CNC(=O)C1CCOC1)OC(=O)C(C)(C)C (centres unmarked) [Compound 6, reference compound] | 2.6 months | – | – | below the detection limit | complete comeal sensitivity loss |
